Experimental data taken from ChEMBL document CHEMBL6083255, “Synthesis and biological evaluation of novel isobenzofuran-1(3H)-one derivatives as antidepressant agents” (2024).
Calls of active or inactive are those of the source. No cut-off for these calls is given here.

What was measured:
Mus musculus [1] = test: Antidepressant activity in chronic restraint stress induced C57BL/6J mouse model assessed as increase in 5-HT level in prefrontal cortex at 10 to 50 mg/kg, po pretreated with CRS for 14 days followed by compound addition on day 15 by ELISA; assay type: functional, organism-based; conditions: dose 10-50 mg/kg
Mus musculus [2] = test: Antidepressant activity in C57BL/6J mouse assessed as reduction in CRS induced body weight loss at 10 mg/kg, po administered as prophylactic dose and measured upto 28 days; assay type: functional, organism-based; conditions: time <= 28.0 day
Mus musculus [3] = test: Antidepressant activity in chronic restraint stress induced C57BL/6J mouse model assessed as increase in PSD-95 expression level at 10 mg/kg, po administered as prophylactic dose by Western blotting assay; assay type: functional, organism-based
RBL-2H3 [4] = test: Cytotoxicity against Wistar rat RBL-2H3 cells assessed as cell viability at 1 uM incubated for 24 hrs by MTT assay; assay type: functional; conditions: read-out: Activity
RBL-2H3 [5] = test: Cytotoxicity against Wistar rat RBL-2H3 cells assessed as cell viability at 125 uM incubated for 24 hrs by MTT assay; assay type: functional; conditions: read-out: Activity
CHO-K1 [6] = test: Antagonist activity at CCK-B receptor in CHO-K1 cells at 50 uM incubated for 90 sec by microplate reader assay; assay type: cell-based; conditions: Cricetulus griseus
Mus musculus [7] = test: Antidepressant activity in chronic restraint stress induced C57BL/6J mouse model assessed as increase in Bcl2/Bax level at 10 mg/kg, po administered as prophylactic dose by Western blotting assay; assay type: functional, organism-based
Mus musculus [8] = test: Antidepressant activity in chronic restraint stress induced C57BL/6J mouse model assessed as reduction in immobility time at 10 mg/kg, po administered as prophylactic dose and measured on day 30 by force swimming test; assay type: functional, organism-based; conditions: time 30.0 day
Mus musculus [9] = test: Antidepressant activity in chronic restraint stress induced C57BL/6J mouse model assessed as increase in distance in open arm at 10 to 50 mg/kg, po pretreated with CRS for 14 days followed by compound addition on day 15 and measured after 31 days by elevated plus maze test; assay type: functional, organism-based; conditions: dose 10-50 mg/kg, time 31.0 day
Mus musculus [10] = test: Antidepressant activity in chronic restraint stress induced C57BL/6J mouse model assessed as increase in latency entries into center zone at 10 mg/kg, po administered as prophylactic dose and measured on day 29 by open field test; assay type: functional, organism-based; conditions: time 29.0 day
Mus musculus [11] = test: Antidepressant activity in chronic restraint stress induced C57BL/6J mouse model assessed as increase in latency entries into center zone at 10 to 50 mg/kg, po pretreated with CRS for 14 days followed by compound addition on day 15 and measured after 29 days by open field test; assay type: functional, organism-based; conditions: dose 10-50 mg/kg, time 29.0 day
Mus musculus [12] = test: Antidepressant activity in chronic restraint stress induced C57BL/6J mouse model assessed as increase in 5-HT level in prefrontal cortex at 10 mg/kg, po administered as prophylactic dose by ELISA; assay type: functional, organism-based
Mus musculus [13] = test: Antidepressant activity in chronic restraint stress induced C57BL/6J mouse model assessed as increase in entries in open arm at 10 mg/kg, po administered as prophylactic dose and measured on day 31 by elevated plus maze test; assay type: functional, organism-based; conditions: time 31.0 day
[14] = target: Sodium-dependent serotonin transporter (Rattus norvegicus) (UniProt P31652); test: Inhibition of SERT in Wistar rat RBL-2H3 cells assessed as decrease in fluorescence intensity at 10 uM preincubated for 2 hrs followed by APP+ addition and measured after 1 hr by fluorescence based assay; assay type: cell-based; conditions: time 3.0 hrs
Mus musculus [15] = test: Antidepressant activity in chronic restraint stress induced C57BL/6J mouse model assessed as reduction in immobility time at 10 to 50 mg/kg, po pretreated with CRS for 14 days followed by compound addition on day 15 and measured after 30 days by force swimming test; assay type: functional, organism-based; conditions: dose 10-50 mg/kg, time 30.0 day
CHO-K1 [16] = test: Agonist activity at mu opioid receptor in CHO-K1 cells assessed as increase in intracellular fluorescence intensity at 50 uM incubated for 90 sec by microplate reader assay; assay type: cell-based; conditions: Cricetulus griseus
Mus musculus [17] = test: Antidepressant activity in chronic restraint stress induced C57BL/6J mouse model assessed as rescue of normal neurons at 10 mg/kg, po administered as prophylactic dose by Nissl staining based optical microscopic assay; assay type: functional, organism-based
Mus musculus [18] = test: Antidepressant activity in chronic restraint stress induced C57BL/6J mouse model assessed as increase in entries in open arm at 10 to 50 mg/kg, po pretreated with CRS for 14 days followed by compound addition on day 15 and measured after 31 days by elevated plus maze test; assay type: functional, organism-based; conditions: dose 10-50 mg/kg, time 31.0 day
CHO-K1 [19] = test: Agonist activity at CCK-B receptor in CHO-K1 cells incubated for 90 sec by microplate reader assay; assay type: cell-based; conditions: Cricetulus griseus
Mus musculus [20] = test: Antidepressant activity in chronic restraint stress induced C57BL/6J mouse model assessed as increase in time in open arm at 10 to 50 mg/kg, po pretreated with CRS for 14 days followed by compound addition on day 15 and measured after 31 days by elevated plus maze test; assay type: functional, organism-based; conditions: dose 10-50 mg/kg, time 31.0 day
Mus musculus [21] = test: Antidepressant activity in chronic restraint stress induced C57BL/6J mouse model assessed as increase the time in center zone at 10 mg/kg, po administered as prophylactic dose and measured on day 29 by open field test; assay type: functional, organism-based; conditions: time 29.0 day
Mus musculus [22] = test: Antidepressant activity in chronic restraint stress induced C57BL/6J mouse model assessed as increase in total distance in center zone at 10 to 50 mg/kg, po pretreated with CRS for 14 days followed by compound addition on day 15 and measured after 29 days by open field test; assay type: functional, organism-based; conditions: dose 10-50 mg/kg, time 29.0 day
Mus musculus [23] = test: Antidepressant activity in chronic restraint stress induced C57BL/6J mouse model assessed as increase in time in open arm at 10 mg/kg, po administered as prophylactic dose and measured on day 31 by elevated plus maze test; assay type: functional, organism-based; conditions: time 31.0 day
Mus musculus [24] = test: Antidepressant activity in chronic restraint stress induced C57BL/6J mouse model assessed as increase in TrkB expression level at 10 mg/kg, po administered as prophylactic dose by Western blotting assay; assay type: functional, organism-based
Mus musculus [25] = test: Antidepressant activity in chronic restraint stress induced C57BL/6J mouse model assessed as increase in BDNF expression level at 10 mg/kg, po administered as prophylactic dose by Western blotting assay; assay type: functional, organism-based
Mus musculus [26] = test: Antidepressant activity in chronic restraint stress induced C57BL/6J mouse model assessed as increase in spinophilin positive cells in cortex at 10 to 50 mg/kg, po pretreated with CRS for 14 days followed by compound addition on day 15 by immunohistochemistry assay; assay type: functional, organism-based; conditions: dose 10-50 mg/kg
Mus musculus [27] = test: Antidepressant activity in chronic restraint stress induced C57BL/6J mouse model assessed as increase in distance in open arm at 10 mg/kg, po administered as prophylactic dose and measured on day 31 by elevated plus maze test; assay type: functional, organism-based; conditions: time 31.0 day
Mus musculus [28] = test: Antidepressant activity in C57BL/6J mouse assessed as reduction in CRS induced body weight loss at 10 to 50 mg/kg, po pretreated with CRS for 14 days followed by compound addition on day 15 and measured upto 28 days; assay type: functional, organism-based; conditions: dose 10-50 mg/kg, time <= 28.0 day
Mus musculus [29] = test: Antidepressant activity in chronic restraint stress induced C57BL/6J mouse model assessed as increase in hippocampus TPH2 protein expression at 10 mg/kg, po administered as prophylactic dose by Western blotting analysis; assay type: functional, organism-based
Mus musculus [30] = test: Antidepressant activity in chronic restraint stress induced C57BL/6J mouse model assessed as increase in total distance in center zone at 10 mg/kg, po administered as prophylactic dose and measured on day 29 by open field test; assay type: functional, organism-based; conditions: time 29.0 day
RBL-2H3 [31] = test: Cytotoxicity against Wistar rat RBL-2H3 cells assessed as cell viability at 25 uM incubated for 24 hrs by MTT assay; assay type: functional; conditions: read-out: Activity
Mus musculus [32] = test: Antidepressant activity in chronic restraint stress induced C57BL/6J mouse model assessed as rescue of normal neurons at 10 to 50 mg/kg, po pretreated with CRS for 14 days followed by compound addition on day 15 by Nissl staining based optical microscopic assay; assay type: functional, organism-based; conditions: dose 10-50 mg/kg
Mus musculus [33] = test: Antidepressant activity in chronic restraint stress induced C57BL/6J mouse model assessed as increase the time in center zone at 10 to 50 mg/kg, po pretreated with CRS for 14 days followed by compound addition on day 15 and measured after 29 days by open field test; assay type: functional, organism-based; conditions: dose 10-50 mg/kg, time 29.0 day
Mus musculus [34] = test: Antidepressant activity in chronic restraint stress induced C57BL/6J mouse model assessed as increase in spinophilin positive cells in cortex at 10 mg/kg, po administered as prophylactic dose by immunohistochemistry assay; assay type: functional, organism-based
CHO-K1 [35] = test: Antagonist activity at mu opioid receptor in CHO-K1 cells assessed as intracellular fluorescence intensity at 50 uM incubated for 2 mins by microplate reader assay; assay type: cell-based; conditions: Cricetulus griseus
RBL-2H3 [36] = test: Cytotoxicity against Wistar rat RBL-2H3 cells assessed as cell viability at 5 uM incubated for 24 hrs by MTT assay; assay type: functional; conditions: read-out: Activity

Sequence of Sodium-dependent serotonin transporter (Rattus norvegicus) (P31652 whole entry): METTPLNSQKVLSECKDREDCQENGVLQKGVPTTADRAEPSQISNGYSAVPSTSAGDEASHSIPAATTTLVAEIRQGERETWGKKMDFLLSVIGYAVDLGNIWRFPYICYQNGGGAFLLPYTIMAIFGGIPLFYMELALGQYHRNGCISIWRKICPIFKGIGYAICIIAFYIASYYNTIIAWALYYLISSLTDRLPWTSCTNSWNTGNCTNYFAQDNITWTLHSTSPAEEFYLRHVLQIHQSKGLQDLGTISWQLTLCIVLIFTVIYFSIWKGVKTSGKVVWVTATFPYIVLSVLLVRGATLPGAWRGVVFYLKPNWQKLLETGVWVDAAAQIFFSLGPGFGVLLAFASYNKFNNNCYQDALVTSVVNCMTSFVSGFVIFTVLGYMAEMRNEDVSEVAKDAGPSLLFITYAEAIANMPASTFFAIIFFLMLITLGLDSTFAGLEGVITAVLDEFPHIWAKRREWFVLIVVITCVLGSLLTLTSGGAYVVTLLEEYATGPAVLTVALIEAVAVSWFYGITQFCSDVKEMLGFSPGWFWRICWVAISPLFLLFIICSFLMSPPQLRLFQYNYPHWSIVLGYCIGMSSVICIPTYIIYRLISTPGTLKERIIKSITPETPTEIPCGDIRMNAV

## CCN(CC)CC1(c2ccc(Cl)cc2)OC(=O)c2ccccc21 (stereo unspecified)
Mus musculus [1]
  Activity: Active
Mus musculus [2]
  Activity: Active
Mus musculus [3]
  Activity: Active
RBL-2H3 [4]
  viability at 1 µM: 105%
RBL-2H3 [5]
  viability at 125 µM: 132%
CHO-K1 [6]
  Activity: inactive
Mus musculus [7]
  Activity: Active
Mus musculus [8]
  Activity: Active
Mus musculus [9]
  Activity: Active
Mus musculus [10]
  Activity: Active
Mus musculus [11]
  Activity: Active
Mus musculus [12]
  Activity: Active
Mus musculus [13]
  Activity: Active
[14]
  Activity: Active; Activity Stronger Than Fluoxetine
Mus musculus [15]
  Activity: Active
CHO-K1 [16]
  Activity: inactive
Mus musculus [17]
  Activity: Active
Mus musculus [18]
  Activity: Active
CHO-K1 [19]
  Activity: inactive
Mus musculus [20]
  Activity: Active
Mus musculus [21]
  Activity: Active
Mus musculus [22]
  Activity: Active
Mus musculus [23]
  Activity: Active
Mus musculus [24]
  Activity: Active
Mus musculus [25]
  Activity: Active
Mus musculus [26]
  Activity: Active
Mus musculus [27]
  Activity: Active
Mus musculus [28]
  Activity: Active
Mus musculus [29]
  Activity: Active
Mus musculus [30]
  Activity: Active
RBL-2H3 [31]
  viability at 25 µM: 117%
Mus musculus [32]
  Activity: Active
Mus musculus [33]
  Activity: Active
Mus musculus [34]
  Activity: Active
CHO-K1 [35]
  Activity: inactive
RBL-2H3 [36]
  viability at 5 µM: 107%
